From ChEMBL document CHEMBL5257029, “Contemporary developments in the discovery of selective factor Xa inhibitors: A review” (Eur J Med Chem, 2016)

target: Coagulation factor X (Homo sapiens, UniProt P00742); assay: Binding affinity to FXa (unknown origin) assessed as inhibition constant
Sequence (P00742 41-179 limits assumed): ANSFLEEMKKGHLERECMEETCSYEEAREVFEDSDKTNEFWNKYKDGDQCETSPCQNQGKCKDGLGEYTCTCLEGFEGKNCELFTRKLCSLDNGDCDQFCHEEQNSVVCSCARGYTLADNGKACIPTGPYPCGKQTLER
Sequence (P00742 235-488 limits assumed): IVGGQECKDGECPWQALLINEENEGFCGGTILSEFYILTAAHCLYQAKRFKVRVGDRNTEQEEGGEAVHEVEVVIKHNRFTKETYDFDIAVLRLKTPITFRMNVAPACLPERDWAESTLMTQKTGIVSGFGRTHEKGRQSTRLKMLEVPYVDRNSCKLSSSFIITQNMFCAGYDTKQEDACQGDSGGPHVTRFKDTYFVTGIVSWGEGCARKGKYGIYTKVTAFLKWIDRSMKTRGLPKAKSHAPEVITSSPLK

Row | Ki [nM] | Structure (SMILES)
1 | 0.91 | NCc1cccc(-n2nc(C(F)(F)F)cc2C(=O)Nc2ccc(-c3ccccc3S(N)(=O)=O)cc2F)c1
2 | 25 | N=C(N)c1ccc(C[C@@H](NC(=O)NC23CC4CC(CC(C4)C2)C3)C(=O)NCCc2ccccc2)cc1
3 | 2 | CC(C)N1CCC(NS(=O)(=O)CCNC(=O)c2ccc(Cl)s2)CC1
